Measured values reported in patent publication US11208388B2, “Certain chemical entities, compositions, and methods” (NeuPharma, Inc., priority 2016, dated 2021).

What was measured:
BTK = BTK (Homo sapiens (Human), UniProt Q06187); test: Z'-LYTE kinase inhibition assay against BTK; format: biochemical; conditions: compound at 100 nM; ATP concentration at Km
Description: Inhibitory activities of compounds against BTK, EGFR T790M, EGFR L858R, and EGFR L858R/T790M were measured using Z′-LYTE® Method from Life Technologies as briefly described in the following.
Test Compounds are screened in […] DMSO (final) in the well. For 10 point titrations, 3-fold serial dilutions are conducted from the starting concentration. All ATP Solutions are diluted to a 4× working concentration in Kinase Buffer (50 mM HEPES pH 7.5, 0.01% BRIJ-35, 10 mM MgCl2, 1 mM EGTA). Peptide/Kinase Mixtures are diluted to a 2× working concentration in the appropriate Kinase Buffers as described below. • (i) Peptide/Kinase Mixtures for measurement of EGFR (ErbB1) L858R: • The 2×EGFR (ErbB1) L858R/Tyr 04 mixture is prepared in 50 mM HEPES pH 7.5, 0.01% BRIJ-35, 10 mM MgCl2, 4 mM MnCl2, 1 mM EGTA, 2 mM DTT. The final 10 μL Kinase Reaction consists of 0.2-1.68 ng EGFR (ErbB1) L858R and 2 μM Tyr 04 in 50 mM HEPES pH 7.5, 0.01% BRIJ-35, 10 mM MgCl2, 2 mM MnCl2, 1 mM EGTA, 1 mM DTT. After the 1 hour Kinase Reaction incubation, 5 μL of a 1:64 dilution of Development Reagent B is added. • (ii) Peptide/Kinase Mixtures for measurement of EGFR (ErbB1) T790M: The 2×EGFR (ErbB1) T790M/Tyr 04 mixture is prepared in 50 mM HEPES pH 6.5, 0.01% BRIJ-35, 10 mM MgCl2, 1 mM EGTA, 0.02% NaN3. The final 10 μL Kinase Reaction consists of 3.9-30.2 ng EGFR (ErbB1) T790M and 2 μM Tyr 04 in 50 mM HEPES pH 7.0, 0.01% BRIJ-35, 10 mM MgCl2, 1 mM EGTA, 0.01% NaN3. After the 1 hour Kinase Reaction incubation, 5 μL of a 1:64 dilution of Development Reagent B is added. • (iii) Peptide/Kinase Mixtures for measurement of EGFR (ErbB1) L858R/T790M: The 2×EGFR (ErbB1) T790M L858R/Tyr 04 mixture is prepared in 50 mM HEPES pH 6.5, 0.01% BRIJ-35, 10 mM MgCl2, 1 mM EGTA, 0.02% NaN3. The final 10 μL Kinase Reaction consists of 0.38-4.22 ng EGFR (ErbB1) T790M L858R and 2 μM Tyr 04 in 50 mM HEPES pH 7.0, 0.01% BRIJ-35, 10 mM MgCl2, 1 mM EGTA, 0.01% NaN3. After the 1 hour Kinase Reaction incubation, 5 μL of a 1:64 dilution of Development Reagent B is added. • (iv) Peptide/Kinase Mixtures for measurement of BTK: The 2×BTK/Tyr 01 mixture is prepared in 50 mM HEPES pH 7.5, 0.01% BRIJ-35, 10 mM MgCl2, 1 mM EGTA. […]
Reaction starts by 30-second shaking of mixture consisting of 2.5 μL 4× test compound, 5 μL 2× kinase reaction mixture and 2.5 μL 4×ATP Solution on Bar-coded Corning, low volume NBS, black 384-well plate (Corning Cat. #3676). […] Finally fluorescence is read by plate reader. […]
To determine IC50 of a compound against a kinase, a series of concentrations of the compound were tested for the inhibition. IC50 was calculated by plotting the concentration of compound vs the percentage of inhibition in treated wells using GraphPad Prism 5. […]

OCI-LY10 cells = test: OCI-Ly10 cell proliferation, Alamar Blue (resazurin), 72 hours; format: cell-based
Description: OCI-Ly10 cells were cultured in Iscove's DMEM supplemented with 20% fetal bovine serum and IX penicillin/streptomycin/glutamine. The cells were maintained in T175 flasks under 5% CO2 in a 37° C. humidified incubator for 5 days prior to plating and assay.
Cells were pooled by centrifugation (200 ref, 8 minutes) and resuspended in fresh medium to a concentration of 2.00E+05 cells/ml. 200 μl of the cell suspension was added to each well (40,000 cells/well) of a black-walled 96 well plate to which 1 μl of compound (n=3 per concentration) in 100% DMSO (0.5% final concentration) was added per well. Vehicle and cell free wells were also included in the assay. The dosed cells were cultured under normal conditions for 72 hours.
Cell proliferation is measured using the dye Alamar Blue (resazurin). Resazurin is reduced to resorufin by cellular enzymes and is fluorescent (544 nm excitation, 612 nm emission). Fluorescence intensity is proportional to cell number. Resazurin was prepared in PBS to a stock concentration of 440 μM. 40 μl of the 440 μM resazurin stock solution was added 3 hours prior to the 72 hour termination of the assay. The plate was returned to normal culture conditions and fluorescence measurements were collected using a Cytation3 multimode plate reader (Biotek) at 72 hours.
The scale utilized in Table 8 is as follows: ++ less than 50 nM and + greater than 50 nM.

Sequence of BTK (Q06187 whole entry): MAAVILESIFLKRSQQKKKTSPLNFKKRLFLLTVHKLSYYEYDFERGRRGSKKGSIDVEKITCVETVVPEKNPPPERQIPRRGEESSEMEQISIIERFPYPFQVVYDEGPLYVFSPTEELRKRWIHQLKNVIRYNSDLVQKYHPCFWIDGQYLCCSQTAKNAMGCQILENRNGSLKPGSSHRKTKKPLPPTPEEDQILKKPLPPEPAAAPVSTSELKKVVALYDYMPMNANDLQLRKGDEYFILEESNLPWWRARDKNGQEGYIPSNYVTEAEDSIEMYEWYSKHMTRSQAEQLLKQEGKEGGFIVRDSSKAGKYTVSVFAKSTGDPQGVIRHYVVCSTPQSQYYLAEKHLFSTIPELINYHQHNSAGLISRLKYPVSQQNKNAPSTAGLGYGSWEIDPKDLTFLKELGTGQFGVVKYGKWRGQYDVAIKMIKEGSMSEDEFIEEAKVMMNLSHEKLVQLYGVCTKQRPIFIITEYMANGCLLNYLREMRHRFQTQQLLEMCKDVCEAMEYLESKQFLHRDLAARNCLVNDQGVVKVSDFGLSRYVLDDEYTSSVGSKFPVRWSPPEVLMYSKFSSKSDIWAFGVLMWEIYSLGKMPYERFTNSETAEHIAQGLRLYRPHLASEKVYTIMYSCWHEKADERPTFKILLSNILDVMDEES

SMILES	% Inhibition against BTK (BTK)	IC50 (OCI-LY10 cells) [nM]
C=CC(=O)Nc1cccc(-c2cc(-c3ccc(Oc4ncccc4F)cc3F)cc3cncnc23)c1 [Example C105, N-(3-(6-(2-fluoro-4-((3-fluoropyridin-2-yl)oxy)-phenyl)quinazolin-8-yl)-phenyl)acrylamide]	++ (more than 50% inhibition)	< 50
C=CC(=O)N1CCC(c2cc(-c3ccc(C(=O)Nc4cccc(F)c4)nc3)cc3cncnc23)C1 (stereo not drawn) [Example C097, 5-(8-(1-acryloylpyrrolidin-3-yl)quinazolin-6-yl)-N-(3-fluorophenyl)picolinamide]	+ (less than 50% inhibition)	
C=CC(=O)Nc1cccc(-c2cc(-c3ccc(C(=O)Nc4ccccc4)nc3)cc3cnc(N)nc23)c1 [Example C059, 5-(8-(3-acrylamidophenyl)-2-aminoquinazolin-6-yl)-N-phenylpicolinamide]	+ (less than 50% inhibition)	
C=CC(=O)Nc1cccc(-c2cc(-c3cccnc3)cc3cnc(N)nc23)c1 [Example C035, N-(3-(2-amino-6-(pyridin-3-yl)quinazolin-8-yl)phenyl)-acrylamide]	++ (more than 50% inhibition)	> 50
